These results are taken from patent US20250282711A1, “CRYSTALLINE FORM OF ELACESTRANT AND PREPARATION METHOD AND USE THEREOF” (CRYSTAL PHARMACEUTICAL (SUZHOU) CO., LTD., priority 2022, published 2025).

The conditions of data set [1]: low solubility and low permeability; cited from earlier work.
For data set [2] the following is noted: cited from earlier work; for Humidity stability / form conversion: as disclosed in WO2020010216A1 (FIG. 1, Table 17).
The nature of data set [3]: Particle size distribution (laser particle size analyzer, wet mode). In kind it is physicochemical. The procedure: The particle size distribution data in the present disclosure were acquired by an Mastersizer 3000 laser particle size analyzer of Malvern. The test was carried out in wet mode, using a Hydro MV dispersion device, and the dispersant was Isopar G. The parameters are as follows:
An appropriate amount of Form CSII of the present disclosure and prior art Form 1B was tested particle size distribution. The average particle diameter calculated by volume, the diameter at which 10% mass is comprised of smaller particles (D10), the diameter at which 50% mass is comprised of smaller particles (D50) and the diameter at which 90% mass is comprised of smaller particles (D90) were obtained in particle size distribution test.

Data set [4] can be described thus: Adhesiveness (material sticking to the punch). It is filed as physicochemical. The note with it: 30 mg, Φ8 mm round tooling, 10 KN, held 30 s. How it is done:
30 mg of Form CSII and 30 mg of prior art Form 1B were weighed and then added into the dies of Φ8 mm round tooling, compressed at 10 KN by ENERPAC manual tablet press and held for 30 s. The punch was weighed and amount of material sticking to the punch was calculated. The compression was repeated twice and the average amount of material sticking to the punch during the compression were calculated.

The nature of data set [5]: Flowability (compressibility index, USP <1174>). It is filed as physicochemical. The note with it: for Compressibility index: c=(pf−p0)/pf; for Flowability: criteria of USP <1174> Powder Flow. How it is done:
Compressibility index is usually utilized to evaluate the flowability of powder or granules during the drug product process. Compressibility index test method is as follows: a certain amount of powder was added into a measuring cylinder and bulk volume was recorded. Then the powder was tapped to make it in the tightest state and the tapped volume was recorded. The bulk density (p0), tapped density (pf) were calculated and compressibility index was calculated according to c=(pf−p0)/pf. According to the criteria of flowability in USP General Charpters: <1174> Powder Flow, the flowability results are shown in Table 10.

The nature of data set [6]: Stability upon mechanical force (tableting pressure, grinding). It is filed as physicochemical.
A short description of data set [7]: Compressibility (tablet hardness / tensile strength). The settings on record: 60 mg, φ6 mm round tooling, 5 KN; for Hardness: 24 h recovery. In kind it is physicochemical. The procedure:
An ENERPAC manual tablet press was used for compression. 60 mg of Form CSII and prior art Form 1B were weighed and added into the dies of a φ6 mm round tooling, compressed at 5 KN manually, then stored at room temperature for 24 h until elastic recovery is complete, hardness (H) was tested with an intelligent tablet hardness tester. Diameter (D) and thickness (L) were tested with a caliper. Tensile strength of the powder was calculated with the following formula: T=2H/TTDL. Under a certain force, the greater the tensile strength, the better the compressibility.

The nature of data set [8]: Storage stability of Form CSII drug substance (XRPD, HPLC). In kind it is physicochemical. How it is done: An appropriate amount of Form CSII of the present disclosure were stored under different sealed conditions of 25° C./60% RH and 40° C./75% RH with desiccant and antioxidant. Chemical purity and crystalline form were checked by HPLC and XRPD, respectively. […] Form CSII has good stability under both long-term and accelerated conditions.

Data set [9] is described as follows: Kinetic solubility in FeSSIF. It is filed as physicochemical. The note with it: 37° C., 30 min, 10 mg in 1 mL. The procedure:
When solubility test is used to predict the in vivo performance of a drug, it is critical to simulate in vivo conditions as closely as possible. For oral medication, Fed-State Simulated Intestinal Fluid (FeSSIF) can be used to simulate the condition in vivo and predict the effects of feeding, thus solubility in such mediums is closer to that in vivo.
10 mg of Form CSII and 10 mg of prior art Form 1B were suspended into 1 mL of FeSSIF to get suspensions. After equilibrated at 37° C. for 30 min, the suspensions were filtrated to get saturated solutions. The concentrations (mg/mL) of Compound I of the saturated solutions were measured by HPLC.

A further data set in a line: Morphology by microscopy. The note with it: magnification of 200 times. It is filed as physicochemical. An excerpt: An appropriate amount of Form CSII of the present disclosure was placed on a glass slide and dispersed with vacuum pump oil. It was covered with a cover glass slide and shoot at a magnification of 200 times.
The nature of data set [10]: Crystal form stability in formulation process. In kind it is physicochemical. The note with it: formulation of Table 15, process of Table 16. From the text: Form CSII of the present disclosure was made into capsules using the formulation in Table 15 and the preparation process in Table 16. The XRPD patterns were collected before and after the formulation process.
Where [11] appears, read: 25° C./60% RH, sealed with desiccant and antioxidant, 6 months.
Where [12] appears, read: 40° C./75% RH, sealed with desiccant and antioxidant, 6 months.

≈ marks a conversion by molar mass, not a printed value.

For `CCNCCc1ccc(CN(CC)c2cc(OC)ccc2[C@@H]2CCc3cc(O)ccc3C2)cc1` [Elacestrant, (R)-6-{2-{ethyl [4-(2-ethylaminoethyl)benzyl]amino}-4-methoxyphenyl}-5,6,7,8-tetrahydronaphthalen-2-ol], the BCS class entry in data set [1] is on record as “BCS class IV”.
For `CCNCCc1ccc(CN(CC)c2cc(OC)ccc2[C@@H]2CCc3cc(O)ccc3C2)cc1` [Form 1], the “Humidity stability / form conversion” value in [2] is given as “transitions to Form 3 under high humidity conditions”.
In the case of `CCNCCc1ccc(CN(CC)c2cc(OC)ccc2[C@@H]2CCc3cc(O)ccc3C2)cc1` [Form 2], in data set [2], the “Humidity stability / form conversion” value is “transitions to Form 3 when humidity is below 40% RH”.
Turning to `CCNCCc1ccc(CN(CC)c2cc(OC)ccc2[C@@H]2CCc3cc(O)ccc3C2)cc1` [Form 3], the “Humidity stability / form conversion” value in [2] is “transitions to Form 2 when humidity is above 40% RH”.
As for `CCNCCc1ccc(CN(CC)c2cc(OC)ccc2[C@@H]2CCc3cc(O)ccc3C2)cc1` [Form CSII, (R)-6-{2-{ethyl [4-(2-ethylaminoethyl)benzyl]amino}-4-methoxyphenyl}-5,6,7,8-tetrahydronaphthalen-2-ol], in data set [3], the D10 was determined as 2.11 μm, the D50 worked out at 14.9 μm, the D90 turned out to be 28.3 μm and the “MV (average particle diameter calculated by volume)” value is 15.8 μm. Moreover, the “Average amount of material sticking to the punch” value in data set [4] is recorded as 0.21 mg. In addition, in data set [5], the Bulk density is 0.237 g/mL, the Tapped density worked out at 0.266 g/mL, the Compressibility index turned out to be 11 and the Flowability entry is given as “Good”. Besides, in data set [6] (Pressure 5 kN), the “Solid form after tableting” value was “Form CSII”. Further, in [6] (Pressure 10 kN), the “Solid form after tableting” value is “Form CSII”. In addition, the “Solid form after tableting” value in [6] (Pressure 15 kN) is on record as “Form CSII”. For the same compound, in data set [6] (grinding (ball milling, FIG. 5)), the “Crystalline form after grinding” value is given as “doesn't change”. Besides, in data set [7], the Tensile strength is listed as 0.97 MPa and the Hardness is 18.4 kgf. The “Time kept stable (crystalline state unchanged)” value in data set [8] (25° C./60% RH) is “at least 6 months”. In addition, in data set [8] (setting [11]), the “Form (XRPD)” value was “Form CSII” and the Purity is given as 99.60%. Moreover, in [8] (40° C./75% RH), the “Time kept stable (crystalline state unchanged)” value is “at least 6 months”. Also, in data set [8] (setting [12]), the “Form (XRPD)” value was “Form CSII” and the Purity is 99.58%. For the same compound, in [8] (Initial), the “Form (XRPD)” value is listed as “Form CSII” and the Purity came to 99.59%. Besides, the Solubility (in general, the concentration that dissolves in the medium under given conditions) in [9] was 2590 µg/mL (≈ 5.65 mM). Also, in “Morphology by microscopy”, the “Agglomeration (morphology)” value is “no agglomeration” and the Maximum particle size was 30-40 μm. Moreover, the “Crystalline form before and after formulation process” value in data set [10] is recorded as “remains stable”.
Regarding `CCNCCc1ccc(CN(CC)c2cc(OC)ccc2[C@@H]2CCc3cc(O)ccc3C2)cc1` [Prior art Form 1B, reference compound], in data set [3], the D10 was 1.64 μm, the D50 worked out at 286 μm, the D90 is 839 μm and the “MV (average particle diameter calculated by volume)” value is on record as 350 μm. For the same compound, the Particle morphology result in [2] (Table 17 of WO2020010216A1) is reported as “very small flaky particle mainly composed of aggregates”. For the same compound, the “Humidity stability / form conversion” value in data set [2] is “can maintain stability at humidity above 90% RH”. The “Average amount of material sticking to the punch” value in data set [4] turned out to be 0.59 mg. In data set [5], the Bulk density is 0.198 g/mL, the Tapped density worked out at 0.248 g/mL, the Compressibility index is given as 20 and the Flowability result is recorded as “Fair”. In [7], the Tensile strength came to 0.44 MPa and the Hardness is on record as 9.3 kgf. For the same compound, the Solubility in data set [9] was determined as 1170 µg/mL (≈ 2.55 mM).
